Measured values reported in paper PMC4522185 (ChemistryOpen, 2015).
Values after ≈ are worked out from the molar mass of the structure shown. Like-named read-outs stand apart in the source and are kept apart here.

Tests used:
[1] = physchem; settings: pbs, pH 7.4, aqueous buffer
[2] = physchem; settings: ch3cn+pbs (1+1), pH 7.4
[3] = target: T1, Mtb 20S open-gate proteasome (Mycobacterium tuberculosis, UniProt P9WHT9); assay: biochemical
[4] = target: human 20S proteasome (chymotrypsin-like activity, with PA28 activator) (Homo sapiens, UniProt P28074); assay: fluorogenic suc-LLVY-AMC cleavage; format: biochemical
Sequence of human 20S proteasome (chymotrypsin-like activity, with PA28 activator) (P28074 60-263): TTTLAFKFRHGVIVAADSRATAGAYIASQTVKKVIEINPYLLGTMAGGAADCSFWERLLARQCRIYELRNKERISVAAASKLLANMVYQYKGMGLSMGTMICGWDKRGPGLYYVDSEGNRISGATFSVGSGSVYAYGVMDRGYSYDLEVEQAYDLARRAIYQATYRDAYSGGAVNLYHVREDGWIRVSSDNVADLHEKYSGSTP
Sequence of human 20S proteasome (chymotrypsin-like activity, with PA28 activator) (P25786 whole entry partner): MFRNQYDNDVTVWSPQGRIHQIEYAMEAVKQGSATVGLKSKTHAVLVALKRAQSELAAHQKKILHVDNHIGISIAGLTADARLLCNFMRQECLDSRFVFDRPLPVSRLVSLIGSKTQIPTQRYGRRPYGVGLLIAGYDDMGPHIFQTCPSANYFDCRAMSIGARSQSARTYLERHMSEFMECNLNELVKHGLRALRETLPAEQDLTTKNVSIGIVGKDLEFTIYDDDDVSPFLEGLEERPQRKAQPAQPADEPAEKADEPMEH

[5] = physchem; settings: pbs ph 7.4, pH 7.4
[6] = target: T1, Mtb 20S open-gate proteasome; assay: biochemical; remark: listed apart in the source
[7] = physchem; settings: pbs, pH 7.4, aqueous buffer; remark: listed apart in the source
[8] = physchem; settings: ch3cn+pbs (1+1), pH 7.4; remark: listed apart in the source
[9] = target: T1, Mtb 20S open-gate proteasome; assay: biochemical; remark: listed apart in the source

T1 sequence (P9WHT9 whole entry): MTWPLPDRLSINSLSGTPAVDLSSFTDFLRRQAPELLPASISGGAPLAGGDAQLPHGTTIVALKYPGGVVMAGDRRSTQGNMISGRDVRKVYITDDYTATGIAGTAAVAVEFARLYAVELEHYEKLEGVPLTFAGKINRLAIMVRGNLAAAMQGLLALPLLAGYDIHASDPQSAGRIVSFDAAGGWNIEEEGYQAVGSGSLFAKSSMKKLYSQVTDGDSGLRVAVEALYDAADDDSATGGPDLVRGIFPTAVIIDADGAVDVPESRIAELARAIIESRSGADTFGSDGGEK
T1 sequence (P9WHU1 whole entry partner): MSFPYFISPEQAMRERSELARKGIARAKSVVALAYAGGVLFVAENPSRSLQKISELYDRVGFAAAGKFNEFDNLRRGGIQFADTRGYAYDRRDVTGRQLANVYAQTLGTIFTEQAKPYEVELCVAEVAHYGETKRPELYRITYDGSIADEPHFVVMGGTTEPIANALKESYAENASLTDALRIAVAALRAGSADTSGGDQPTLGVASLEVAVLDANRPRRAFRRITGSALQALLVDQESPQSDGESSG

With O=c1oc(-c2cnccn2)ns1 [compound 2] the solubility at 18 h [1] was 35.1 µM (≈ 6.36 µg/mL), the remaining at 24 h, 50 µM [2] was 3.6% and the IC50 [3] was 2300 nM.
In the case of COc1cccc(-c2nsc(=O)o2)c1 [compound 3], the solubility at 18 h [1] is reported as 30.9 µM (≈ 6.47 µg/mL), the remaining at 24 h, 50 µM [2] is reported as 15.4% and the IC50 [3] is reported as 665 nM.
O=c1oc(/C=C/c2ccccc2)ns1 [compound 17, (E)-5-Styryl-1,3,4-oxathiazol-2-one] showed an IC50 [4] greater than 100000 nM, a solubility at 18 h [1] of 19.1 µM (≈ 3.92 µg/mL) and a remaining at 24 h, 50 µM [2] of 38.7%. For the same compound, the IC50 [3] was 420 nM.
With O=c1oc(/C=C/c2ccc(C(F)(F)F)cc2)ns1 [compound 18, (E)-5-(4-(Trifluoromethyl)styryl)-1,3,4-oxathiazol-2-one] the IC50 [4] was greater than 100000 nM and the solubility at 18 h [1] was 0.1 µM (≈ 0.0273 µg/mL).
For O=C(c1ccccc1)c1nsc(=O)o1 [compound 19, 5-Benzoyl-1,3,4-oxathiazol-2-one], the IC50 [4] was 2950 nM, the solubility at 18 h [1] was 5.7 µM (≈ 1.18 µg/mL) and the remaining at 24 h, 50 µM [2] was 46.8%. It also gave an IC50 [3] of 2250 nM.
With O=c1oc(C#Cc2ccccc2)ns1 [compound 20, 5-(Phenylethynyl)-1,3,4-oxathiazol-2-one] the IC50 [4] was 4200 nM, the solubility at 18 h [1] was 24.9 µM (≈ 5.06 µg/mL) and the remaining at 24 h, 50 µM [2] was 89.6%. For the same compound, the IC50 [3] was 1040 nM.
In the case of O=c1oc(/C=C/C(F)(F)F)ns1 [compound 22, (E)-5-(3,3,3-Trifluoroprop-1-en-1-yl)-1,3,4-oxathiazol-2-one], the IC50 [4] is reported as greater than 100000 nM, the solubility at 18 h [1] is reported as 44.1 µM (≈ 8.69 µg/mL) and the remaining at 24 h, 50 µM [2] is reported as 79.9%.
O=c1onc(-c2ccccc2)o1 [compound 24, 3-Phenyl-1,4,2-dioxazol-5-one] gave an IC50 [4] greater than 100000 nM, a solubility at 18 h [1] of 7.6 µM (≈ 1.24 µg/mL) and a remaining at 24 h, 50 µM [2] of 8.5%.
For O=c1onc(/C=C/c2ccccc2)o1 [compound 25], the solubility at 18 h [1] was 12.3 µM (≈ 2.33 µg/mL).
Work on COc1ccc(/C=C/c2nsc(=O)o2)cc1 [compound 28, (E)-5-(4-Methoxystyryl)-1,3,4-oxathiazol-2-one] yielded an IC50 [4] of 8500 nM, a remaining at 24 h, 50 µM [5] of 1.5% and an IC50 [6] of 1350 nM.
O=c1oc(/C=C/c2ccncc2)ns1 [compound 49, (E)-5-(2-(Pyridin-4-yl)vinyl)-1,3,4-oxathiazol-2-one] gave an IC50 [4] of 77000 nM, a solubility at 18 h [7] of 84.7 µM (≈ 17.5 µg/mL) and a remaining at 24 h, 50 µM [8] of 91.6%. For the same compound, the IC50 [9] was 2750 nM.
In the case of COc1ncccc1/C=C/c1nsc(=O)o1 [compound 50, (E)-5-(2-(2-Methoxypyridin-3-yl)vinyl)-1,3,4-oxathiazol-2-one], the IC50 [4] is reported as 29500 nM, the solubility at 18 h [7] is reported as 2.1 µM (≈ 0.496 µg/mL) and the remaining at 24 h, 50 µM [8] is reported as 97.7%.
For O=c1oc(/C=C/c2cccs2)ns1 [compound 51, (E)-5-(2-(Thiophen-2-yl)vinyl)-1,3,4-oxathiazol-2-one], the IC50 [4] was 18500 nM, the solubility at 18 h [7] was 22.6 µM (≈ 4.77 µg/mL) and the remaining at 24 h, 50 µM [8] was 97.6%. The IC50 [9] was 2100 nM.
With O=c1oc(/C=C/c2ccsc2)ns1 [compound 52, (E)-5-(2-(Thiophen-3-yl)vinyl)-1,3,4-oxathiazol-2-one] the IC50 [4] was 11300 nM, the solubility at 18 h [7] was 19.7 µM (≈ 4.16 µg/mL) and the remaining at 24 h, 50 µM [8] was 99.1%. The IC50 [9] was 1150 nM.
In the case of O=Cc1ccc(/C=C/c2nsc(=O)o2)o1 [compound 53, (E)-5-(2-(2-Oxo-1,3,4-oxathiazol-5-yl)vinyl)furan-2-carbaldehyde], the IC50 [4] is reported as 3300 nM, the solubility at 18 h [7] is reported as 56.1 µM (≈ 12.5 µg/mL) and the remaining at 24 h, 50 µM [8] is reported as 88.9%. For the same compound, the IC50 [9] was 735 nM.
In the case of O=c1nc2c(/C=C/c3nsc(=O)o3)cccn2s1 [compound 56, (E)-5-(2-(2-Oxo-2 H-[1,2,4]thiadiazolo[2,3-a]pyridin-8-yl)vinyl)-1,3,4-oxathiazol-2-one], the solubility at 18 h [7] is reported as 2.4 µM (≈ 0.67 µg/mL).
For O=c1oc(/C=C/c2c[nH]c3ccccc23)ns1 [compound 57, 57], the IC50 [4] was 5000 nM and the solubility at 18 h [7] was 4.1 µM (≈ 1 µg/mL).
